From ChEMBL document CHEMBL5252567, “Tetrazole-based inhibitors of the bacterial enzyme N-succinyl-l,l-2,6-diaminopimelic acid desuccinylase as potential antibiotics” (Bioorg Med Chem Lett, 2023)

Assays:
[1] = molecular target: T1, Succinyl-diaminopimelate desuccinylase (Haemophilus influenzae (strain ATCC 51907 / DSM 11121 / KW20 / Rd), UniProt P44514); test: Inhibition of Haemophilus influenzae DapE
T1 sequence (P44514 whole entry): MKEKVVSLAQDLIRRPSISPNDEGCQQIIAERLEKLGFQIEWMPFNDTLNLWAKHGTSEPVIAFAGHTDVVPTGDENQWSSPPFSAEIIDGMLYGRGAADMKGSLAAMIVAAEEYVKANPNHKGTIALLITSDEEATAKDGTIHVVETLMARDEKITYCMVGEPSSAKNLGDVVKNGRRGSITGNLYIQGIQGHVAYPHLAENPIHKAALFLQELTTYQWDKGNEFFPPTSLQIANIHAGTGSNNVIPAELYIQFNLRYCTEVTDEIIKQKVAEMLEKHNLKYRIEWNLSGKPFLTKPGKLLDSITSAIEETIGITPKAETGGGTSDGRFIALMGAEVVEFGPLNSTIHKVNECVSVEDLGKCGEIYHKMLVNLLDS

[2] = molecular target: T2, Succinyl-diaminopimelate desuccinylase (Haemophilus influenzae (strain ATCC 51907 / DSM 11121 / KW20 / Rd)) (UniProt P44514); test: Inhibition of Haemophilus influenzae DapE at 100 uM relative to control
T2 sequence (whole entry): T1 sequence (P44514 whole entry)

[3] = molecular target: T2, Succinyl-diaminopimelate desuccinylase (Haemophilus influenzae (strain ATCC 51907 / DSM 11121 / KW20 / Rd)); test: Inhibition of Haemophilus influenzae DapE at 75 uM relative to control

IC50 [1] [µM] | inhibition [2] [%] | inhibition [3] [%] | Compound
– | 35.6 | – | CC(Sc1nnnn1-c1ccccc1)C(=O)Nc1nccs1 (centres undefined)
– | 17.2 | – | CC(Sc1nnnn1-c1ccccc1)C(=O)Nc1ccon1 (centres undefined)
134 | 55.4 | – | CC(Sc1nnnn1-c1ccccc1)C(=O)Nc1ccccc1 (centres undefined)
– | 9.7 | – | CC(Sc1nnnn1-c1ccccc1)C(=O)Nc1cnccn1 (centres undefined)
– | 36.3 | – | CC(Sc1nnnn1-c1ccccc1)C(=O)NCc1ccccc1 (centres undefined)
– | 23.2 | – | CC(Sc1nnnn1-c1ccccc1)C(=O)Nc1ccccn1 (centres undefined)
57.3 | 71 | – | CC(Sc1nnnn1-c1ccccc1)C(=O)Nc1ccc(Cl)cn1 (centres undefined)
– | 26.5 | – | O=C(CSc1nnnn1-c1ccccc1)Nc1ccccn1

Further lines, the compound ahead of its results:

Compound | IC50 [1] [µM] | inhibition [2] [%] | inhibition [3] [%]
O=C(CSc1nnnn1-c1ccccc1)Nc1nccs1 | 50.2 | 71.5 | –
O=C(CSc1nnnn1-c1ccccc1)Nc1ccccc1 | 54.3 | 83.8 | –
O=C(CSc1nnnn1-c1ccccc1)NCc1ccccc1 | 103 | 61.5 | –
O=C(CSc1nnnn1-c1ccccc1)Nc1ccon1 | – | 49.2 | –
O=C(CSc1nnnn1-c1ccccc1)Nc1cnccn1 | – | 10.2 | –
O=C(CSc1nnnn1-c1ccccc1)Nc1ccc(Cl)cn1 | – | – | 39.5
